For the assay, the target named is T1, MAGL (Homo sapiens, UniProt Q99685).
T1 sequence (Q99685 1-303): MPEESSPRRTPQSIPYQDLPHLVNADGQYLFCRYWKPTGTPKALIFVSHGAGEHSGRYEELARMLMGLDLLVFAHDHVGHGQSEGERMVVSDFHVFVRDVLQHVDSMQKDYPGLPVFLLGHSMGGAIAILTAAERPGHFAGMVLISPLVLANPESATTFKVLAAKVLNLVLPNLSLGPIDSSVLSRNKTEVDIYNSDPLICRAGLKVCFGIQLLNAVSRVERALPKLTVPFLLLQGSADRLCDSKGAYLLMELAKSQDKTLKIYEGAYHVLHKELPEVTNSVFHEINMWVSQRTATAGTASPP
As to the kind of experiment: 2-AG assay (MAGL inhibitory activity, hydrolysis of 2-arachidonoylglycerol to arachidonic acid followed by mass spectrometry). Format: biochemical. The conditions noted are these: 8 μM 2-arachidonoylglycerol, 15 min pre-incubation, 30 min incubation at RT, RapidFire MS readout. In outline: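 Arachidonic acid released from 8 μM 2-arachidonoylglycerol was quantified by online SPE triple-quadrupole MS (negative ESI, 303.1→259.1), normalised to d8-arachidonic acid internal standard. Reaction ran 30 min at RT after 15 min RT compound pre-incubation with […] MAGL in TRIS/EDTA/Tween-20 buffer, 2.5% DMSO.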
On to `O=C(N1CC(Oc2ccc(C3CC3)cn2)C1)N1CC2(CC(n3cnc(C4CC4)n3)C2)C1` [Example 210, [3-[(5-cyclopropyl-2-pyridyl)oxy]azetidin-1-yl]-[6-(3-cyclopropyl-1,2,4-triazol-1-yl)-2-azaspiro[3.3]heptan-2-yl]methanone], for which the IC50 – broadly, the concentration that inhibits the measured activity by half – was 1.3 nM.

For `O=C(N1CC2(CC(n3cnc(C4CC4)n3)C2)C1)N1CC2(C1)CN(S(=O)(=O)c1ccc(F)cc1C(F)(F)F)C2` [Example 211, (6-(3-cyclopropyl-1H-1,2,4-triazol-1-yl)-2-azaspiro[3.3]heptan-2-yl)(6-((4-fluoro-2-(trifluoromethyl)phenyl)sulfonyl)-2,6-diazaspiro[3.3]heptan-2-yl)methanone], the IC50 turned out to be 1.4 nM.

As for `O=C(N1CC(c2ccc(N3CCC(O)(C(F)(F)F)C3)nc2)C1)N1CC2(CC(n3cnc(C4CC4)n3)C2)C1` (centres unmarked) [Example 212, [6-(3-cyclopropyl-1,2,4-triazol-1-yl)-2-azaspiro[3.3]heptan-2-yl]-[3-[6-[3-hydroxy-3-(trifluoromethyl)pyrrolidin-1-yl]-3-pyridyl]azetidin-1-yl]methanone], the IC50 came out at 1.5 nM.

`O=C(N1CC2(CC(n3cnc(C4CC4)n3)C2)C1)N1CC2(C1)CN(S(=O)(=O)c1cc(F)cc(F)c1)C2` [Example 213, [6-(3-cyclopropyl-1,2,4-triazol-1-yl)-2-azaspiro[3.3]heptan-2-yl]-[2-(3,5-difluorophenyl)sulfonyl-2,6-diazaspiro[3.3]heptan-6-yl]methanone] had a concentration for half-maximal inhibition (IC50) of 1.6 nM.

In turn, `CC(C)(C)CS(=O)(=O)NC1CC2(C1)CN(C(=O)N1CC3(CC(n4cnc(C5CC5)n4)C3)C1)C2` [Example 215, N-[2-[6-(3-cyclopropyl-1,2,4-triazol-1-yl)-2-azaspiro[3.3]heptane-2-carbonyl]-2-azaspiro[3.3]heptan-6-yl]-2,2-dimethyl-propane-1-sulfonamide] had an IC50 of 1.7 nM.

In turn, `O=C(N1CC(c2ccc(N3CC[C@@](O)(C(F)(F)F)C3)nc2)C1)N1CC2(CC(n3cnc(C4CC4)n3)C2)C1` [Example 216] came in with an IC50 of 2 nM.

`O=C(N1CC2(CC(Cc3ccc(F)cn3)C2)C1)N1CC2(CC(n3cnc(C4CC4)n3)C2)C1` [Example 217, [6-(3-cyclopropyl-1,2,4-triazol-1-yl)-2-azaspiro[3.3]heptan-2-yl]-[6-[(5-fluoro-2-pyridyl)methyl]-2-azaspiro[3.3]heptan-2-yl]methanone] showed a concentration for half-maximal inhibition (IC50) of 2 nM. In other words, the single-digit nanomolar range.

On to `Cc1cn(C2CC3(C2)CN(C(=O)N2CC4(CC(Cc5ccc(F)cc5F)C4)C2)C3)cn1` [Example 218, [6-[(2,4-difluorophenyl)methyl]-2-azaspiro[3.3]heptan-2-yl]-[6-(4-methylimidazol-1-yl)-2-azaspiro[3.3]heptan-2-yl]methanone], for which inhibition was half-maximal at 2.1 nM (IC50).

The compound `COc1c(OC2CN(C(=O)N3CC4(CC(n5cnc(C6CC6)n5)C4)C3)C2)cccc1C(F)(F)F` [Example 219, (6-(3-cyclopropyl-1H-1,2,4-triazol-1-yl)-2-azaspiro[3.3]heptan-2-yl)(3-(2-methoxy-3-(trifluoromethyl)phenoxy)azetidin-1-yl)methanone] had an IC50 of 2.2 nM.

`O=C(N1CC2(CC(n3cnc(C4CC4)n3)C2)C1)N1CC2(CN(Cc3cc(F)cc(F)c3)C2)C1` [Example 221, [6-(3-cyclopropyl-1,2,4-triazol-1-yl)-2-azaspiro[3.3]heptan-2-yl]-[6-[(3,5-difluorophenyl)methyl]-2,6-diazaspiro[3.3]heptan-2-yl]methanone] had a half-maximal inhibitory concentration (IC50) of 2.5 nM.

Consider `O=C(N1CC(Oc2cccc(C(F)(F)F)c2Cl)C1)N1CC2(CC(n3cnc(C4CC4)n3)C2)C1` [Example 222, (3-(2-chloro-3-(trifluoromethyl)phenoxy)azetidin-1-yl)(6-(3-cyclopropyl-1H-1,2,4-triazol-1-yl)-2-azaspiro[3.3]heptan-2-yl)methanone], for which the concentration for half-maximal inhibition (IC50) worked out at 2.6 nM.

The compound `O=C(N1CC2(CC(n3cnc(C4CC4)n3)C2)C1)N1CC2(C1)CN(S(=O)(=O)c1ccccc1C(F)(F)F)C2` [Example 223, [6-(3-cyclopropyl-1,2,4-triazol-1-yl)-2-azaspiro[3.3]heptan-2-yl]-[2-[2-(trifluoromethyl)phenyl]sulfonyl-2,6-diazaspiro[3.3]heptan-6-yl]methanone] came in with a concentration for half-maximal inhibition (IC50) of 3 nM.

The compound `O=C(N1CC2(CC(n3cnc(C4CC4)n3)C2)C1)N1CC2(C1)CN(S(=O)(=O)C1CCCCC1)C2` [Example 224, (2-cyclohexylsulfonyl-2,6-diazaspiro[3.3]heptan-6-yl)-[6-(3-cyclopropyl-1,2,4-triazol-1-yl)-2-azaspiro[3.3]heptan-2-yl]methanone] came in with an IC50 of 3 nM.

`O=C(N1CC2(CC(n3cnc(C4CC4)n3)C2)C1)N1CC2(C1)CN(S(=O)(=O)c1ccc(C(F)(F)F)cc1)C2` [Example 225, [6-(3-cyclopropyl-1,2,4-triazol-1-yl)-2-azaspiro[3.3]heptan-2-yl]-[2-[4-(trifluoromethyl)phenyl]sulfonyl-2,6-diazaspiro[3.3]heptan-6-yl]methanone] registered a 50% inhibitory concentration (IC50) of 3.3 nM.

Consider `O=C(N1CC2(CC(n3cnc(C4CC4)n3)C2)C1)N1CC2(C1)CN(S(=O)(=O)c1cc(F)cc(C(F)(F)F)c1)C2` [Example 226, [6-(3-cyclopropyl-1,2,4-triazol-1-yl)-2-azaspiro[3.3]heptan-2-yl]-[2-[3-fluoro-5-(trifluoromethyl)phenyl]sulfonyl-2,6-diazaspiro[3.3]heptan-6-yl]methanone], for which the IC50 amounted to 3.6 nM.

In turn, `O=C(N1CCC([C@@H](c2ccc(F)cc2)c2nc(C3CC3)no2)CC1)N1CC2(CC(n3cnc(C4CC4)n3)C2)C1` [Example 227, [4-[(S)-(3-cyclopropyl-1,2,4-oxadiazol-5-yl)-(4-fluorophenyl)methyl]-1-piperidyl]-[6-(3-cyclopropyl-1,2,4-triazol-1-yl)-2-azaspiro[3.3]heptan-2-yl]methanone] returned a half-maximal inhibitory concentration (IC50) of 3.8 nM.

Compound `O=C(N1CC2(CC(n3cnc(C4CC4)n3)C2)C1)N1CC2(C1)CN(S(=O)(=O)c1ccc(F)cc1Cl)C2` [Example 228, [2-(2-chloro-4-fluoro-phenyl)sulfonyl-2,6-diazaspiro[3.3]heptan-6-yl]-[6-(3-cyclopropyl-1,2,4-triazol-1-yl)-2-azaspiro[3.3]heptan-2-yl]methanone] returned a half-inhibitory concentration (IC50) of 4.2 nM.

In turn, `COC(=O)c1ccccc1CN1CC2(C1)CN(C(=O)N1CC3(CC(n4cnc(C5CC5)n4)C3)C1)C2` [Example 229, methyl 2-[[2-[6-(3-cyclopropyl-1,2,4-triazol-1-yl)-2-azaspiro[3.3]heptane-2-carbonyl]-2,6-diazaspiro[3.3]heptan-6-yl]methyl]benzoate] came in with a concentration for half-maximal inhibition (IC50) of 4.5 nM.

Consider `O=C(N1CC2(CC(n3cnc(C4CC4)n3)C2)C1)N1CC2(C1)CN(S(=O)(=O)c1ccc(OC(F)(F)F)cc1)C2` [Example 230, [6-(3-cyclopropyl-1,2,4-triazol-1-yl)-2-azaspiro[3.3]heptan-2-yl]-[2-[4-(trifluoromethoxy)phenyl]sulfonyl-2,6-diazaspiro[3.3]heptan-6-yl]methanone], for which 4.6 nM corresponded to half-maximal inhibition (IC50). The IC50 values of the last two compounds are within 1.5-fold of each other.

Take `O=C(N1CC2(CC(n3cnc(C4CC4)n3)C2)C1)N1CC2(C1)CN(S(=O)(=O)c1ccc(F)cc1F)C2` [Example 231, [6-(3-cyclopropyl-1,2,4-triazol-1-yl)-2-azaspiro[3.3]heptan-2-yl]-[2-(2,4-difluorophenyl)sulfonyl-2,6-diazaspiro[3.3]heptan-6-yl]methanone]: half-maximal inhibition (IC50) was put at 4.6 nM.

Compound `O=C(N1CC2(CC(n3cnc(C4CC4)n3)C2)C1)N1CC2(CN(Cc3ccc(C(F)(F)F)cn3)C2)C1` [Example 232] had an IC50 of 4.6 nM.

Compound `O=C(N1CC2(CC(n3cnc(C4CC4)n3)C2)C1)N1CC2(C1)CN(S(=O)(=O)c1cccc(OC(F)(F)F)c1)C2` [Example 233, [6-(3-cyclopropyl-1,2,4-triazol-1-yl)-2-azaspiro[3.3]heptan-2-yl]-[2-[3-(trifluoromethoxy)phenyl]sulfonyl-2,6-diazaspiro[3.3]heptan-6-yl]methanone] registered a half-inhibitory concentration (IC50) of 5.3 nM.

`O=C(N1CC2(CC(n3cnc(C4CC4)n3)C2)C1)N1CC2(CN(Cc3ccc(F)cc3F)C2)C1` [Example 234, [6-(3-cyclopropyl-1,2,4-triazol-1-yl)-2-azaspiro[3.3]heptan-2-yl]-[6-[(2,4-difluorophenyl)methyl]-2,6-diazaspiro[3.3]heptan-2-yl]methanone] showed an IC50 of 5.4 nM.

The compound `O=C(N1CC(Oc2cncc(C3CC3)c2Cl)C1)N1CC2(CC(n3cnc(C4CC4)n3)C2)C1` [Example 235, [3-[(4-chloro-5-cyclopropyl-3-pyridyl)oxy]azetidin-1-yl]-[6-(3-cyclopropyl-1,2,4-triazol-1-yl)-2-azaspiro[3.3]heptan-2-yl]methanone] registered an IC50 of 6 nM.

The compound `O=C(N1CC2(CC(n3cnc(C4CC4)n3)C2)C1)N1CC2(C1)CN(S(=O)(=O)c1ccc(F)c(C(F)(F)F)c1)C2` [Example 236, [6-(3-cyclopropyl-1,2,4-triazol-1-yl)-2-azaspiro[3.3]heptan-2-yl]-[2-[4-fluoro-3-(trifluoromethyl)phenyl]sulfonyl-2,6-diazaspiro[3.3]heptan-6-yl]methanone] had a half-maximal inhibitory concentration (IC50) of 6.2 nM.

Compound `O=C(N1CC2(CC(n3cnc(C4CC4)n3)C2)C1)N1CC2(C1)CN(S(=O)(=O)N1CCCCC1)C2` [Example 237, [6-(3-cyclopropyl-1,2,4-triazol-1-yl)-2-azaspiro[3.3]heptan-2-yl]-[2-(1-piperidylsulfonyl)-2,6-diazaspiro[3.3]heptan-6-yl]methanone] returned a half-inhibitory concentration (IC50) of 6.4 nM. The IC50 values of the last two compounds are within 1.5-fold of each other.
